The values below come from patent publication US20240285552A1 (priority 2020, published 2024).

Assay [1] has as its system B.1.617.2 Delta Variant of SARS-CoV-2. Kind of assay: microbe, parasite or virus in culture. It counts as cell-based. Particulars: for IC50: read-out: IC 50 against B.1.617.2 Delta Variant Infection-Induced CPE.
The subject of assay [2] is SARS-CoV-2 spike (B.1.617.2 Delta Variant) pseudotyped lentivirus. The experiment in a line: microbe, parasite or virus in culture. It counts as cell-based. Particulars: for inhibition at 10 µM: HEK293, 10 μM.
Where [3] appears, read: Severe acute respiratory syndrome coronavirus 2, Vero C1008, Vero E6.
Where [4] appears, read: Lentivirus, read-out: Percent (%) Inhibition of Pseudo virus Entry in HEK293 Kidney Cells, B.1.617.2 Delta Variant.

The structures appear in SMILES notation. Structures can show the parent of a compound that is named as a salt. Where two headings read alike, the source gives them in different places.

Turning to `CN(Cc1cc(Br)cc(Br)c1N)C1CCCCC1` [BHH, Bromhexine hydrochloride], in assay [1], the “Conc. at Max. % Inhibition” value was 18.75 µM and the “Max. Inhibition” value was 74.57%. Further, the IC50 in assay [1] (setting [3]) was 17.7 µM. Moreover, in assay [2] (100 μM), the “Percent (%) Inhibition of Pseudo virus Entry in HEK293 Kidney Cells, B.1.617.2 Delta Variant” value is on record as “blocked viral entry completely”. In assay [2] (setting [4]), the inhibition at 10 µM is around 10%.

As for `CC(C)(C)[C@H](NC(=O)C(F)(F)F)C(=O)N1C[C@H]2[C@@H]([C@H]1C(=O)N[C@H](C#N)C[C@@H]1CCNC1=O)C2(C)C` [PF-07321332], in assay [1], the “Conc. at Max. % Inhibition” value stood at 10 µM and the “Max. Inhibition” value turned out to be 96.28%. In assay [1] (Vero E6), the IC50 worked out at 1.98 µM.

`Nc1c(Br)cc(Br)cc1CN[C@H]1CC[C@H](O)CC1` [AMB, 4-[(2-amino-3,5-dibromophenyl)methylamino]cyclohexan-1-ol; hydrochloride]: in assay [1], the “Conc. at Max. % Inhibition” value was determined as 150 µM. The “Max. Inhibition” value in assay [1] amounted to 88.38%. Also, the IC50 was around 98 µM in assay [1] (setting [3]) and 98.2 µM in assay [1] (Vero E6, hydrochloride). Further, the “Percent (%) Inhibition of Pseudo virus Entry in HEK293 Kidney Cells, B.1.617.2 Delta Variant” value in assay [2] (50 μM, hydrochloride) is reported as 48%; in assay [2] (100 μM, hydrochloride), 95%. Besides, the inhibition at 10 µM in assay [2] (setting [4]) was 6%. For the same compound, the inhibition at 25 µM in assay [2] (Lentivirus, HEK293, 25 μM, read-out: Percent (%) Inhibition of Pseudo virus Entry in HEK293 Kidney Cells, B.1.617.2 Delta Variant) was determined as 19%. Further, the inhibition at 50 µM in assay [2] (Lentivirus, HEK293, 50 μM, read-out: Percent (%) Inhibition of Pseudo virus Entry in HEK293 Kidney Cells, B.1.617.2 Delta Variant) is 50%. Also, the inhibition at 100 µM in assay [2] (Lentivirus, HEK293, 100 μM, read-out: Percent (%) Inhibition of Pseudo virus Entry in HEK293 Kidney Cells, B.1.617.2 Delta Variant) came to 100%.

As for `CCN(CC)CCCC(C)Nc1ccnc2cc(Cl)ccc12` (stereo not drawn) [Chloroquine], the “Conc. at Max. % Inhibition” value in assay [1] stood at 15 µM. Besides, the IC50 in assay [1] (setting [3]) turned out to be 8.3 µM.

For `CCC(CC)COC(=O)[C@H](C)N[P@](=O)(OC[C@H]1O[C@@](C#N)(c2ccc3c(N)ncnn23)[C@H](O)[C@@H]1O)Oc1ccccc1` [Remdesivir], in assay [1], the “Conc. at Max. % Inhibition” value is 15 µM and the “Max. Inhibition” value is 104.26%. The IC50 in assay [1] (setting [3]) was 8.24 µM.

`CCOC(=O)[C@H]1O[C@@H]1C(=O)N[C@@H](CC(C)C)C(=O)NCCC(C)C` [Aloxistatin]: the “Conc. at Max. % Inhibition” value in assay [1] is 15 µM. Besides, in assay [1], the “Max. Inhibition” value amounted to 85.17%. Moreover, the IC50 in assay [1] (setting [3]) turned out to be 9.84 µM; in assay [1] (Vero E6) it was 9.82 µM.
